Experimental data from US8853245B2, “Orally bioavailable dabigatran prodrugs for the treatment of diseases” (Dritte Patentportfolio Beteiligungsgesellschaft mbH & Co. KG, priority 2011, dated 2014).
≈ marks a conversion by molar mass, not a printed value. Entries after “also recorded” stand apart in the source; their conditions may differ. Read-outs that look alike come from different tables or passages of the source.

What was measured:
[1] = target: albumin (Homo sapiens, UniProt P02768); assay: Plasma protein binding (4% albumin solution, ultrafiltration); format: in vitro ADME; conditions: 10, 25 and 50 μM, 15 min at 37° C.
Protocol: The plasma protein binding was determined at three different concentrations (10, 25, and 50 μM). A 4% albumin solution was used as the protein solutions. 50 μl of a 10 times concentrated substance solution were in each case pipetted to 450 μl of the protein solution. Incubation ensued over 15 min in a shaking water bath at 37° C. Subsequently, the samples were transferred into ultrafiltration units (Vivaspin 500, 10 kDa cut off) and centrifuged for 15 min at 10,000 RPM. The filtrate was analyzed by HPLC. Additionally, a control which was not mixed with protein nor centrifuged was carried out for each concentration. A further control without protein addition which, however, was centrifuged by the filtration unit served to validate the methodology.

[2] = Solubility in phosphate buffer at various pH values; format: physicochemical; conditions: shaken 10 min; for solubility at 10 min: aqueous buffer, thermodynamic from solid
Protocol: An amount of the dabigatran amidoxime succinic acid ester (1) which is insoluble in 150 μl was dissolved in 50 mM of a phosphate buffer (pH 6.3, pH 7.4, respectively pH 9.0) and shaken for 10 min. Solubility was not determined at the 4.0 and 2.0 pH values due to the rapid hydrolysis of the succinyl ester at acidic pH values. 3 N HCl, respectively 10% KOH, was used to adjust the pH value. After the 10 min period, the undissolved portion was removed by centrifugation (13,000 RPM, 10 min) and the samples were immediately measured by HPLC. The evaluation of the solubility ensued via a calibration of dabigatran amidoxime succinic acid ester (1) (Table 1). Dabigatran etexilate and dabigatran amidoxime (2) were examined by comparison so as to be able to better judge the solubility as compared to previously described derivatives. Solubilities were determined analogously to the method described for compound (1).

[3] = parameters: species or system rats; conditions: rat, in vivo
Protocol: Dabigatran was administered intravenously to 20 rats in a concentration of 10 mg/kg. Dabigatran amidoxime succinic acid ester (1), dabigatran amidoxime (2), and dabigatran etexilate were administered to 10 rats each in a concentration of 50 mg/kg as a suspension with Arabic gum (10% m/V) per gavage. 100 mM of potassium phosphate buffer of pH 9.0 was used with the dabigatran amidoxime succinic acid ester (1) in preparing the suspension so as to prevent premature cleavage of the succinyl ester in the acidic environment of the stomach. In addition, 3 rats were given dabigatran at a dosage of 50 mg/kg per gavage in order to determine the oral bioavailability of the active form itself.
After the intravenous administration, plasma samples were taken after 5, 10, 25, 50, 100, 200, and 400 min, respectively 30, 60, 90, 120, 240, 360, and 480 min after oral administration. For this purpose, 300 μl of whole blood was drawn using an insulin syringe and transferred into EDTA-coated CB 300 microvettes (Sarstedt, Nümbrecht). After each withdrawal, the sample was rinsed with 100 μl of 0.9% saline solution respectively with heparin solution (250 I.E./ml) at an interval of 60 min. The blood sample was briefly shaken and placed on ice until centrifugation (4° C.; 14,000 RPM; 10 min). The samples were stored further at −80° C.
The plasma samples were defrosted at room temperature. 5 μl of 1N HCl was prepared in each case and 55 μl of the plasma samples added by pipetting. The samples were subsequently shaken for 45 min in order to cleave the existing glucuronides. The plasma proteins were then precipitated with 55 μl of methanol and shaken for a further 30 min. The samples were centrifuged at 10,000 RPM for 15 min and the supernatant was transferred into HPLC vials. 10 μl was used in each case for the HPCL determinations.
Calibrations and analyses for recovering the dabigatran were performed in a phosphate buffer of pH 7.4, murine plasma respectively, so as to quantitatively evaluate the plasma samples.
The bioavailability of the different dabigatran prodrugs was calculated by means of the PK Solutions 2.0™ program using the plasma concentrations. Furthermore, the plasma half-life t1/2, the time of maximum plasma level tmax, as well as the maximum plasma concentration cmax were calculated.

[4] = Stability (ester hydrolysis) in murine plasma; format: in vitro ADME; conditions: 0.2 mM, 37° C., up to 150 min, listed as dabigatran amidoxime succinic acid ester (1)
Protocol: (§1) Further analyses were conducted with human and murine plasma. 900 μl of the plasma was mixed with 100 μl of a 2 mM solution of dabigatran amidoxime succinic acid ester (1). The final concentration of dabigatran amidoxime succinic acid ester (1) was thus 0.2 mM. The samples were incubated at 37° C. in a shaking water bath and samples were taken after 0, 15, 30, 45, 60, 90, 120 and 150 min. For this purpose, 100 μl was drawn in each case and mixed with 100 μl acetonitrile. The samples were shaken, centrifuged for 5 min and the supernatant was measured via HPLC. The results are illustrated in FIGS. 2 and 3.

[5] = Stability analysis at various pH values (phosphate buffer, HPLC); format: physicochemical; conditions: acidic medium (<pH 6)
Protocol: A 0.2 mM solution of dabigatran amidoxime succinic acid ester (1) was prepared in 50 mM of a potassium phosphate buffer for the stability analyses. The examination took place at pH values of 2.0, 4.0, 6.3, 7.4 and 9.0. One sample was taken and immediately analyzed by HPLC every 30 min over a period of 360 min.

[6] = Dabigatran in organ samples (liver and kidney) after oral administration; format: in vivo; conditions: rats, oral 50 mg/kg, 8 hours after administration
Protocol: Slaughter ensued by guillotine decapitation 8 hours after the drug administration. The organs were subsequently removed. All organs were cleaned and frozen in 2-methylbutane cooled in dry ice. Liver, kidney, lung, spleen, heart, and brain were removed.
The organs were defrosted at room temperature and weighed. Depending on the respective organ, differing amounts of the tissues were prepared. About 1000 mg were used in case of the liver samples; about 500 mg in case of the kidney samples. Liver and kidney were examined since both organs participate in the activation of the prodrug and increased concentrations of dabigatran can therefore occur in same. Other organs are irrelevant for the bioactivation and were therefore not examined.
The organ samples (liver and kidney) were minced by means of a potter. For this purpose, each of the weighed tissues were minced with 1 ml aqua bidest for 5 min. The potter vessel was subsequently rinsed in each case with 1 ml of aqua bidest. The samples were transferred into reaction vessels and the same volume of acetonitrile was added in order to precipitate proteins. The samples were shaken for 45 min and subsequently centrifuged at 12,000 RPM for 15 min. […]
The solubilizing of the samples ensued with 400 μl of a mixture of methanol/aqua bidest (50/50). […] The concentration of dabigatran was determined from the supernatant by means of HPLC.

[7] = Stability (ester hydrolysis) in human plasma; format: in vitro ADME; conditions: 0.2 mM, 37° C., up to 150 min, listed as dabigatran amidoxime succinic acid ester (1)
Protocol: as §1

[8] = Solubility in phosphate buffer at various pH values; format: physicochemical; conditions: pH 2.0, preliminary test runs
[9] = etexilate data from the literature; cited from earlier work

Sequence of albumin (P02768 25-609, species assumed): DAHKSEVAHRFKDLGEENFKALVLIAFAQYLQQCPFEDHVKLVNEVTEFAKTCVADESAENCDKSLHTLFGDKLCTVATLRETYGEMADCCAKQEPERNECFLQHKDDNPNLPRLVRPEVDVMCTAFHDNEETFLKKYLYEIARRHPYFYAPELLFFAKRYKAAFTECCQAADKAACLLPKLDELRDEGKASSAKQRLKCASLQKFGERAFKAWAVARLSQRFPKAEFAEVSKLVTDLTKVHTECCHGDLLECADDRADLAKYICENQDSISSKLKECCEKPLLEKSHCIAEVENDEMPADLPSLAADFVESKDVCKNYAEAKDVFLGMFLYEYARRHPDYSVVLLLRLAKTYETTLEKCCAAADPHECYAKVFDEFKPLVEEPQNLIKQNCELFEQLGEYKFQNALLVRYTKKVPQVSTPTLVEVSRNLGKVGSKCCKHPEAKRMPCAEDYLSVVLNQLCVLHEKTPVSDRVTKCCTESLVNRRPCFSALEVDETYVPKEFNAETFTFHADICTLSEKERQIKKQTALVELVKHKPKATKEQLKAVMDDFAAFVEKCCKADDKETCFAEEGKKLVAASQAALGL

**Q.** Which plasma protein binding [1] does the source give for `Cn1c(CNc2ccc(C(N)=NO)cc2)nc2cc(C(=O)N(CCC(=O)O)c3ccccn3)ccc21` [Dabigatran amidoxime (2)] here?
**A.** 31.2±1.3%

**Q.** What about the solubility ([2]; pH 6.3, 50 mM phosphate buffer) of the same molecule?
**A.** 145 ± 16 µM (≈ 70.7 µg/mL)

**Q.** What about the solubility ([2]; pH 7.4, 50 mM phosphate buffer) of the same molecule?
**A.** 119 ± 5 µM (≈ 58 µg/mL)

**Q.** What about the solubility ([2]; pH 9.0, 50 mM phosphate buffer) of the same molecule?
**A.** 111 ± 8 µM (≈ 54.1 µg/mL)

**Q.** And the bioavailability [3]?
**A.** 4.1 ± 1.4 %

**Q.** What about the Cmax ([3]; po, 50 mg/kg) of the same molecule?
**A.** 2760 ± 1060 nM

**Q.** And the “maximum plasma concentrations (range)” value ([3]; po, 50 mg/kg)?
**A.** 1.7 to 5.5 µM

**Q.** And the “period of detectable dabigatran plasma levels” value ([3]; po, 50 mg/kg)?
**A.** 480 min

**Q.** And the “prodrug itself in plasma” value ([3]; po, 50 mg/kg)?
**A.** could not be identified

**Q.** What about the t1/2 ([3]; po, 50 mg/kg) of the same molecule?
**A.** 108.1 ± 56.2^+ min

**Q.** What about the “time at which maximum plasma concentrations were reached (range)” value ([3]; po, 50 mg/kg) of the same molecule?
**A.** 30 to 60 min

**Q.** And the tmax ([3]; po, 50 mg/kg)?
**A.** 36.0 ± 12.6 min

**Q.** What does the source list for `CCOC(=O)CCN(C(=O)c1ccc2c(c1)nc(CNc1ccc(/C(N)=N/OC(=O)CCC(=O)O)cc1)n2C)c1ccccn1`?
**A.** hydrolysis of the ester bond in plasma [4]: pronounced hydrolysis of the ester bond; also recorded: very marked ester cleavage; fraction unbound at 15 min [1]: ~0.78; plasma protein binding ([1]; listed as dabigatran amidoxime succinic acid ester (1)): 21.8±5.3%; solubility at 10 min ([2]; pH 6.3, 50 mM phosphate buffer): 630 ± 290 µM (≈ 388 µg/mL); solubility at 10 min ([2]; pH 7.4, 50 mM phosphate buffer): 4620 ± 830 µM (≈ 2840 µg/mL); solubility at 10 min ([2]; pH 9.0, 50 mM phosphate buffer): 8160 ± 440 µM (≈ 5020 µg/mL); stability in acidic medium [5]: rather instable; dabigatran concentration in liver samples compared to other prodrugs [6]: clearly lower; dabigatran detected in liver and kidney [6]: small amounts; hydrolysis of the ester bond in plasma [7]: pronounced hydrolysis of the ester bond; also recorded: very marked ester cleavage; solubility in acidic medium [8]: good solubility; bioavailability [3]: 5.5%±1.7%; Cmax ([3]; po, 50 mg/kg): 2770 ± 550 nM; maximum plasma concentrations (range) ([3]; po, 50 mg/kg): 1.8 to 3.7 µM; period of detectable dabigatran plasma levels ([3]; po, 50 mg/kg): 480 min; prodrug itself in plasma ([3]; po, 50 mg/kg): could not be identified; t1/2 ([3]; po, 50 mg/kg): 69.3 ± 30.4^+ min; time at which maximum plasma concentrations were reached (range) ([3]; po, 50 mg/kg): 30 to 60 min; tmax ([3]; po, 50 mg/kg): 48.0 ± 15.5^+ min

**Q.** Which results are given for `CCCCCCOC(=O)NC(=N)c1ccc(NCc2nc3cc(C(=O)N(CCC(=O)OCC)c4ccccn4)ccc3n2C)cc1` [Dabigatran etexilate]?
**A.** solubility at 10 min ([2]; pH 6.3, 50 mM phosphate buffer): 3.6 ± 2 µM (≈ 2.26 µg/mL); solubility at 10 min ([2]; pH 7.4, 50 mM phosphate buffer): 0.6 ± 0.4 µM (≈ 0.377 µg/mL); solubility at 10 min ([2]; pH 9.0, 50 mM phosphate buffer): 0.4 ± 0.1 µM (≈ 0.251 µg/mL); bioavailability [3]: 7.2%±2.0%; Cmax ([3]; po, 50 mg/kg): 3480 ± 640 nM; maximum plasma concentrations (range) ([3]; po, 50 mg/kg): 2.3 to 4.5 µM; period of detectable dabigatran plasma levels ([3]; po, 50 mg/kg): 480 min; prodrug itself in plasma ([3]; po, 50 mg/kg): could not be identified; t1/2 ([3]; po, 50 mg/kg): 87.7 ± 27.5 min; time at which maximum plasma concentrations were reached (range) ([3]; po, 50 mg/kg): 30 to 90 min; tmax ([3]; po, 50 mg/kg): 57.0 ± 22.1 min; bioavailability described in the literature [9]: 5-8%

**Q.** For `[H]/N=C(/N)c1ccc(NCc2nc3cc(C(=O)N(CCC(=O)O)c4ccccn4)ccc3n2C)cc1` [Dabigatran], which “period of detectable plasma levels” value ([3]; iv, 10 mg/kg) is on record?
**A.** 400 min

**Q.** What about the Cmax ([3]; po, 50 mg/kg) of the same molecule?
**A.** 240 ± 130 nM

**Q.** What about the bioavailability ([3]; po, 50 mg/kg) of the same molecule?
**A.** 0.3 ± 0.2 %

**Q.** What about the t1/2 ([3]; po, 50 mg/kg) of the same molecule?
**A.** 58.0 ± 31.1^+ min

**Q.** What about the tmax ([3]; po, 50 mg/kg) of the same molecule?
**A.** 105.0 ± 21.2 min
